Reference: patent US20170251707A1, “PROCESS FOR THE PRODUCTION OF LOW COLORIE SWEETENER COMPOSITIONS AND USES THEREOF” (priority 2016, published 2017)
Like-named read-outs stand apart in the source and are kept apart here.

How the values were obtained:
[1] = healthy and type 2 diabetic subjects, sucrose with 4% added L-Arabinose; cited from earlier work
[2] = cited from earlier work
intestinal sucrase = settings: porcine intestinal mucosa, in vitro; cited from earlier work
[3] = acute (test meal) and sub chronic (twice a day for 9 week), after sucrose feeding; cited from earlier work
[4] = humans, after six months; cited from earlier work
[5] = rats, HCHF diet; cited from earlier work
[6] = In vivo study: test beverage, postprandial glucose and insulin responses; design: species or system people; settings: versus 25 g sucrose control, p=0.0001
Procedure: FIGS. 3 and 4 represent the outcome of an in vivo study performed using 15 previously selected people. Selected subjects arrived at the labs between 8 am and 9:45 am, and the start time for each subject was kept as similar as possible. After being weighed, 2 fasting blood samples at 5 min intervals were collected; subjects started to consume a test beverage (sweetener mixed with water) which was consumed in its entirety within 5 min. A timer was started at the first sip of the beverage, and further capillary blood samples were obtained at t=15, 30, 45, 60, 90 and 120±2 min, for the determination of glucose and insulin concentrations. Blood samples were collected into 2 separate vials: one (2-3 drops blood) for glucose analysis and the other (8-10 drops of blood) for insulin. Before and during the test, a blood glucose test record was filled out with the subject's initials, ID number, date, body weight, test meal, time of starting to eat, time it took to eat, time and composition of last meal, and any unusual activities. At the beginning and end, participants were asked to fill out a symptom questionnaire. During the 2 hours of the test, participants remain seated quietly. After the last blood sample was obtained participants were offered a snack and allowed to leave. […]

[7] = continuous intravenous, 1 g/kg body weight, human subjects; cited from earlier work
[8] = cited from earlier work; remark: listed apart in the source
[9] = pre-exercise ingestion; cited from earlier work
[10] = cited from earlier work; remark: listed apart in the source
[11] = cited from earlier work; remark: listed apart in the source
[12] = HFD-fed mice; cited from earlier work
[13] = blood plasma testing; cited from earlier work
[14] = alone or in combination with fructose, compared with glucose alone; cited from earlier work
[15] = sucrose in combination with L-Arabinose versus sucrose
[16] = oral 15, 35 or 75 g in 250 ml, versus water alone

In the case of O=C[C@H](O)[C@@H](O)[C@@H](O)CO [L-Arabinose], the “increases in plasma glucose” value [1] is given as “reduced”, the “increases in serum insulin” value [1] is given as “reduced” and the liver triacylglycerol concentrations ([2]; rats fed with sucrose, additional feeding of L-Arabinose) is given as “prevented this increase”. The blood glucose response [2, 15] was “suppressed”, the insulin response [2, 15] was “suppressed” and the “effect on intestinal sucrase activity” value (intestinal sucrase) was “inhibitory effect”. The blood glucose [3] was “suppressed”, the diastolic blood pressure [4] was “slightly decreased” and the high-density lipoprotein cholesterol [4] was “slightly increased”. For the same compound, the “waist circumference, total cholesterol, fasting glucose, serum uric acid, low-density lipoprotein cholesterol” value [4] was “decreased”, the “body weight, lee's index, visceral index” value [5] was “lower” and the “dyslipidemia, insulin resistance, inflammation, and viscera function” value [5] was “improve”.

With OC[C@H]1O[C@H](O[C@]2(CCl)O[C@H](CCl)[C@@H](O)[C@@H]2O)[C@H](O)[C@@H](O)[C@H]1Cl [sucralose] the “postprandial insulin responses (FIG. 5)” value [6] was “significantly lower than sucrose”.

In the case of OCC(O)CO [glycerol], the serum insulin concentration [7] is given as “did not result in an increased”, the insulin response [8, 16] is given as “did not differ significantly from those after water alone” and the plasma glucose response [8, 16] is given as “did not differ significantly from those after water alone”.

In the case of O=C[C@H](O)[C@@H](O)[C@@H](O)[C@H](O)CO [galactose, reference compound], the “insulin response prior to exercise” value [9] is given as “lower”, the “plasma glucose response prior to exercise” value [9] is given as “lower” and the “prevalence of rebound hypoglycemia” value [9] is given as “reduced”.

In the case of OC[C@@H](O)[C@@H](O)CO [Erythritol, (2R,3S)-butane-1,2,3,4-tetraol], the excretion ([10]; human metabolism, for the most part) is given as “excreted unchanged in the urine”, the absorption ([10]; human metabolism) is given as “absorbed into the bloodstream in the small intestine” and the “increases in blood sugar levels” value ([10]; in vivo) is given as “does not induce increases”. For the same compound, the laxative effects ([10]; in vivo) was “does not normally cause laxative effects”, the tooth decay ([10]; in vivo) was “does not cause” and the gastric side effects ([10]; unlike other sugar alcohols) was “unlikely to cause”.

In the case of O=C[C@H](O)[C@@H](O)[C@H](O)[C@H](O)CO [D-glucose, reference compound], the “reduction in blood glucose levels” value ([11]; after 180 minute) is listed as 20%, the “increment / elevation of blood glucose levels” value ([11]; healthy human subjects) is listed as 52% and the “incremental area under the glucose response curve (AUC)” value ([8]; oral 15 or 75 g in 250 ml) is listed as “significant dose-dependent increase”. For the same compound, the “incremental area under the insulin response curve (AUC)” value ([8]; oral 15 or 75 g in 250 ml) was “significant dose-dependent increase”.

For OC[C@H]1O[C@H](O[C@H]2O[C@H](CO)[C@@H](O)[C@H](O)[C@H]2O)[C@H](O)[C@@H](O)[C@@H]1O [Trehalose], the adipocyte hypertrophy [12] is listed as “prevents”, the insulin resistance [12] is listed as “mitigates” and the “influence on blood glucose levels” value [13] is listed as “almost flat response”. The glycemic response [14] was “lower”, the insulinemic response [14] was “lower” and the “insulin response prior to exercise” value [9] was “lower”. For the same compound, the “plasma glucose response prior to exercise” value [9] was “lower” and the “prevalence of rebound hypoglycemia” value [9] was “reduced”.
